Test results taken from patent US7499847B2, “Crystalline VAP-1 and uses thereof” (Biotie Therapies Corporation, priority 2003, dated 2009).

What was measured:
[1] = molecular target: T1, Recombinant human VAP-1 SSAO (Homo sapiens, UniProt Q16853); experiment: VAP-1 SSAO activity, coupled colourimetric assay (benzylamine substrate); assay type: biochemical; conditions: for IC50: CHO cell lysate with recombinant human VAP-1 SSAO, 1 mM benzylamine, 1 h at 37° C., read-out: VAP-1 SSAO inhibitory activity IC50; for Selectivity for VAP-1 SSAO over MAO: ratio of total rat MAO IC50 to human VAP-1 SSAO IC50
T1 construct: expressed in transfected cells; host or cells: CHO cells (clarified NP40 lysate used directly)
T1 sequence (Q16853 1-763): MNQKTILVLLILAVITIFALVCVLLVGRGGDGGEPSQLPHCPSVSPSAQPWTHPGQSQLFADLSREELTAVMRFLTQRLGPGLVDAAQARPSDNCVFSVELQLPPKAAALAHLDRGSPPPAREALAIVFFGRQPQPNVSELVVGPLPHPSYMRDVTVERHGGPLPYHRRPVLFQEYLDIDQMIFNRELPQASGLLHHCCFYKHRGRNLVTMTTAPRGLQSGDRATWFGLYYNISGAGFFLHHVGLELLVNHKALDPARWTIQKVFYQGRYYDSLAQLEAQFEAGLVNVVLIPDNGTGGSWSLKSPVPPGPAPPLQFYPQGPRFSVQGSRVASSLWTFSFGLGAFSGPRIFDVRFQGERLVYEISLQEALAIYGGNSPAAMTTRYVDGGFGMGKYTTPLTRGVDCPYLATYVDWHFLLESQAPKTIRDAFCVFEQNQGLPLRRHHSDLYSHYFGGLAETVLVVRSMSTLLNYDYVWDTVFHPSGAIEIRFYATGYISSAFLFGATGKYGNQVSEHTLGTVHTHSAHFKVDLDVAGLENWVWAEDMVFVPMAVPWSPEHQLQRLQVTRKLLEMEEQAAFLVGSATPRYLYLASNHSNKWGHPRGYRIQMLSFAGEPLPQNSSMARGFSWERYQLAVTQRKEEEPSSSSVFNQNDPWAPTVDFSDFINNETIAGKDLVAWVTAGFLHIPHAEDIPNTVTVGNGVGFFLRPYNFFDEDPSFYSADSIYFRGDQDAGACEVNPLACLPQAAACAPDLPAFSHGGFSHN
Description: VAP-1 SSAO activity was measured using the coupled colourimetric method essentially as described for monoamine oxidase and related enzymes. Recombinant human VAP-1 SSAO expressed in Chinese Hamster Ovary (CHO) cells was used as a source of VAP-1 SSAO for activity measurements. Native CHO cells have negligible SSAO activity. These cells and their culture have previously been described (Smith D J et al., 1998).
A cell lysate was prepared by suspending approximately 3.6×10^8 cells in 25 ml lysis buffer (150 mM NaCl, 10 mM Tris-Base pH 7.2, 1.5 mM MgCl2, 1% NP40) and incubating at 4° C. overnight on a rotating table. The lysate was clarified by centrifugation at 18000 g for 5 min at room temperature and the supematant used directly in the assay.
The VAP-1 SSAO assay was performed in 96 well microtitre plates as follows. To each well was added a predetermined amount of inhibitor if required. The amount of inhibitor varied in each assay but was generally at a final concentration of between 1 nM and 50 μM. Controls lacked inhibitor. The inhibitor was in a total volume of […] in water. The following reagents were then added. 0.2M potassium phosphate buffer pH 7.6 to a total reaction volume of 200 μl, 45 μl of freshly made chromogenic solution containing 1 mM 2,4-dichlorophenol, 500 μM 4-aminoantipyrine and 4 U/ml horseradish peroxidase and an amount of CHO cell lysate containing VAP-1 SSAO that caused a change of 0.6 A490 per h. This was within the linear response range of the assay.
The plates were incubated for 30 min at 37° C. and the background absorbance measured at 490 nm using a Wallac Victor II multilabel counter. To initiate the enzyme reaction 20 μl 10 mM benzylamine (final concentration=1 mM) was added and the plate incubated for 1 h at 37° C.
The increase in absorbance, reflecting VAP-1 SSAO activity, was measured at 490 nm. Inhibition was presented as percent inhibition compared to control after correcting for background absorbance and IC50. values calculated using GraphPad Prism.

[2] = system: T2, Total rat MAO (rat liver mitochondrial preparate); experiment: Total rat MAO activity, colourimetric assay (tyramine substrate); assay type: biochemical; conditions: rat liver MAO preparation, 0.5 mM tyramine, 1 h at 37° C.; read-out: Total MAO inhibitory activity IC50
T2 construct: Rat MAO was prepared from rat liver; Mitochondrial preparate was aliquoted and stored at −70° C
Description: Rat MAO was prepared from rat liver by rinsing a 1 g liver sample several times in 14 ml KCl-EDTA-solution to remove all blood. Then 1 g liver sample was homogenised in 4 ml ice-cold potassium phosphate buffer (0.1 M, pH 7.4) with an Ultra-Turrax homogeniser (setting 11 000 rpm, 4×10 s). After centrifugation at 500 g for 10 min at 4° C. the supematant was carefully withdrawn and was centrifuged at 12 300 g for 15 min at 4° C. The supernatant was discharged and sedimented mitochondria were resuspended in 4 ml fresh phosphate buffer and centrifuged as previously. The mitochondria were suspended in 4 ml phosphate buffer and homogenized with an Ultra-Turrax homogeniser (setting 11 000 rpm, 2×10 s). Mitochondrial preparate was aliquoted and stored at −70° C. […] To each well was added a predetermined amount of inhibitor if required. The amount of inhibitor varied in each assay but was generally at a final concentration of between 10 nM and […]. Controls lacked inhibitor. […] The plates were incubated for 30 min at 37° C. and the background absorbance measured at 490 nm using a Wallac Victor II multilabel counter. To initiate the enzyme reaction 20 μl of 5 mM tyramine (final concentration 0.5 mM) was added and the plate incubated for 1 h at 37° C. The increase in absorbance, reflecting MAO activity, was measured at 490nm. Inhibition was presented as percent inhibition compared to control after correcting for background absorbance and IC50 values calculated using GraphPad Prism. Clorgyline and pargyline (inhibitors of MAO-A and -B respectively) at 0.5 μM were added to some wells as positive controls for MAO inhibition.

| IC50 [1] [nM] | Selectivity for VAP-1 SSAO over MAO [1] | IC50 [2] [nM] | Compound |
| --- | --- | --- | --- |
| 370 | 35 | 13000 | CN(N)CC(O)COc1ccccc1.O=C(O)/C=C\C(=O)O (stereo not drawn) [Compound 1] |
| 520 | 17 | 8700 | Cc1ccccc1OCC(O)CN(C)N.O=C(O)/C=C/C(=O)O (stereo not drawn) [Compound 2] |
| 260 | 13 | 3300 | COC(COc1ccc(Cl)cc1)CN(C)N.O=C(O)/C=C/C(=O)O (stereo not drawn) [Compound 3] |
| 430 | 23 | 10000 | Cc1ccc(OCC(O)CN(C)N)cc1.O=C(O)/C=C/C(=O)O (stereo not drawn) [Compound 4] |
| 520 | 8 | 4000 | COC(COc1cccc2ccccc12)CN(C)N.O=C(O)/C=C\C(=O)O (stereo not drawn) [Compound 5] |
| 90 | 37 | 3300 | COc1ccc(OCC(O)CNNc2ccccc2)cc1.Cl (stereo not drawn) [Compound 6] |
| 440 | 14 | 6000 | COC(COc1ccc(C)cc1)CN(C)N.O=C(O)/C=C/C(=O)O (stereo not drawn) [Compound 7] |
| 650 | 15 | 10000 | CN(N)CC(O)COc1cccc2ccccc12.O=C(O)/C=C\C(=O)O (stereo not drawn) [Compound 8] |
| 210 | 195 | 41000 | COc1ccc(SCC(O)CN(C)N)cc1OC.O=C(O)/C=C/C(=O)O (stereo not drawn) [Compound 9] |
| 550 | 11 | 6000 | CN(N)CC(O)COc1ccc2ccccc2c1.O=C(O)/C=C/C(=O)O (stereo not drawn) [Compound 10] |
| 270 | 41 | 11000 | CN(N)CC(O)CSc1ccccc1.O=C(O)/C=C/C(=O)O (stereo not drawn) [Compound 11] |
| 330 | 112 | 37000 | COc1cccc(OCC(O)CN(C)N)c1.O=C(O)/C=C/C(=O)O (stereo not drawn) [Compound 12] |
| 640 | 5 | 3300 | COC(COc1ccc2ccccc2c1)CN(C)N.O=C(O)/C=C/C(=O)O (stereo not drawn) [Compound 13] |
| 370 | 9 | 3400 | COC(CSc1ccccc1)CN(C)N.O=C(O)/C=C/C(=O)O (stereo not drawn) [Compound 14] |
| 350 | 21 | 7400 | COc1ccc(OCC(O)CN(C)N)cc1.O=C(O)/C=C\C(=O)O (stereo not drawn) [Compound 16] |
| 430 | 14 | 6100 | CN(N)CC(O)COc1ccc(Cl)cc1.O=C(O)/C=C/C(=O)O (stereo not drawn) [Compound 17] |
| 200 | 45 | 8800 | CN(N)CC(O)CN(C)c1ccccc1.O=C(O)/C=C/C(=O)O (stereo not drawn) [Compound 19] |
| 340 | 28 | 9600 | COC(CN(C)N)CN(C)c1ccccc1.O=C(O)/C=C/C(=O)O (stereo not drawn) [Compound 20] |
